In patent US5891882A, “Benzopyranopyrrole and benzopyranopyridine α-1 adenergic compounds” (priority 1997, dated 1999):
pKi: −log10 of the molar value. Structures can show the parent of a compound that is named as a salt. Where two headings read alike, the source gives them in different places.

Legend:
[1] = target: T1, α-1b adrenoreceptor (hamster) (Mesocricetus auratus, UniProt P18841); experiment: In vitro [3H]-prazosin radioligand binding, cloned α-1b adrenoreceptor expressed in LTK cells; conditions: for Ki: cloned hamster α-1b in LTK cells, [3H]prazosin 0.2 nM, read-out: Radioligand Binding (Ki; nM) 1b (Hamster)
T1 construct: expressed in transfected cells; cDNA from TULCO; membranes
T1 sequence (P18841 1-515): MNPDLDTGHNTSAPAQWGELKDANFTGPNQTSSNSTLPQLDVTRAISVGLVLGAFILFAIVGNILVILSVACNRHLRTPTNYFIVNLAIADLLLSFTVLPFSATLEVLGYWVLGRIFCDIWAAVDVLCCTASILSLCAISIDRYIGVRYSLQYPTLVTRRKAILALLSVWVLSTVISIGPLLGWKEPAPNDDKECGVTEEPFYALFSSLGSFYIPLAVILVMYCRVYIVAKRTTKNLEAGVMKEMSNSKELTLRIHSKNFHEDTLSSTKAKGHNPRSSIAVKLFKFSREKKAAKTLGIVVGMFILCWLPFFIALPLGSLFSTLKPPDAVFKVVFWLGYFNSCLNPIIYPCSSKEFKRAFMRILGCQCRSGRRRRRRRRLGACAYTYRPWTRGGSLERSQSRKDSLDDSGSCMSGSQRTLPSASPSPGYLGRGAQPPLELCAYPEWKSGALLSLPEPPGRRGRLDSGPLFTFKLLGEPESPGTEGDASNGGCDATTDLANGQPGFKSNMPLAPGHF
Text: (§1) The cDNA clones encoding the α-1 adrenoreceptors (α-1a, α-1b, and α-1d) were obtained from TULCO (Triangle Universities Licensing Consortium, Research Triangle Park, N.C.) and inserted into the eukaryotic expression vector SnaB30. In this vector, expression of the adrenoreceptor gene is under the transcriptional control of an SV40 early promoter. Positive drug selection is provided by a neomycin-resistance gene. Mouse fibroblast cells (LTK) were transfected with the α1 expression plasmids and grown in Dulbecco's modified Eagle's medium (DMEM) containing 10% fetal calf serum and […]. Stable G418-resistant parental lines were generated, with successful expression of adrenoreceptor protein monitored using radioligand binding techniques. Stable single cell clones derived from the parental lines were screened in adrenoreceptor binding assays to identify clones having high adrenoreceptor density. Roller bottle cultures of the cloned lines were used to provide cell membranes for subsequent adrenoreceptor binding characterization studies. A cell line containing the SnaB30 vector expressing the human erythropoietin gene served as a negative control.
(§2) For adrenoreceptor binding assays, large scale membrane preparations were utilized in which 6 million cells were seeded into small (450 cm^2) Corning tissue culture roller bottles. 200 mL of DMEM containing 10% fetal calf serum and 300 μM G418 were added to each roller bottle. A 95% air/5% CO2 gas mixture (sterile) was injected into each roller bottle prior to sealing. The bottles were then incubated at 37° C. on a roller rack for 5 days. Cells were re-fed with fresh medium after 3 days in culture.
(§3) On the fifth day of culture, growth medium was removed from cells grown in roller bottles, and the cells were washed twice with PBS (Sigma, 120 mM NaCl, 2.7 mM KCl, 10 mM Na2 HPO4 --NaH2 PO4, pH=7.4). Cells were detached from the roller bottles by incubating for 15 minutes at 37° C. in a Tris-EDTA solution (10 mM Tris, 100 mM NaCl, 1 mM EDTA, pH=7.4). The cell suspension from each roller bottle was decanted into tared centrifuge tubes and kept on ice. An aliquot of each cell suspension was generally taken for cell counting. Cells were centrifuged at 3000×G for 5 min at 2°-4° C., washed with PBS and recentrifuged. The supernatant was decanted and the pellet weighed to determine the wet weight of cells. Cells were washed a final time in 40 vol 5 mM Tris-HCl, 5 mM EDTA, pH=7.7, and centrifuged at 40,000×G for 10 minutes. Cells were homogenized in 10 mL of 50 mM Tris-HCl, 5 mM EDTA (pH=7.4) and diluted to 40 mL/tube. Homogenates were centrifuged at 40,000×G for 10 minutes. The supernatant was decanted and the pellets rehomogenized in 50 mM Tris-HCl (pH=7.4) and centrifuged as before. The supernatant was decanted and the homogenate resuspended in 6.25 volumes (per gram wet weight) of 50 mM Tris-HCl and aliquots of the pooled homogenates frozen in liquid N2 and stored at -70° C. until the time of assay. Rat submaxillary glands were used for α-1A adrenoreceptors and were prepared essentially as described (Michel, A. D., Loury, D. N. and Whiting, R. L., Brit. J. Pharmacol. 98: 83-889 (1989)).
(§4) Receptor binding assays for α-1 adrenoreceptors were performed essentially as described by Greengrass and Bremner (Eur. J. Pharmacol. 55: 323-326 (1979)). […] Radioactivity was determined by standard liquid scintillation techniques. Data were analyzed as previously described (Hancock, A. A., Kyncl, J. J., Martin, Y. C. and DeBernardis, J. F., J Receptor Res. 8: 23-46 (1988)).

[2] = target: T2, α-1d adrenoreceptor (rat) (Rattus norvegicus, UniProt P23944); experiment: In vitro [3H]-prazosin radioligand binding, cloned α-1d adrenoreceptor expressed in LTK cells; conditions: for Ki: cloned rat α-1d in LTK cells, [3H]prazosin 0.2 nM, read-out: Radioligand Binding (Ki; nM) 1d (Rat)
T2 construct: expressed in transfected cells; cDNA from TULCO; membranes
T2 sequence (P23944 1-561): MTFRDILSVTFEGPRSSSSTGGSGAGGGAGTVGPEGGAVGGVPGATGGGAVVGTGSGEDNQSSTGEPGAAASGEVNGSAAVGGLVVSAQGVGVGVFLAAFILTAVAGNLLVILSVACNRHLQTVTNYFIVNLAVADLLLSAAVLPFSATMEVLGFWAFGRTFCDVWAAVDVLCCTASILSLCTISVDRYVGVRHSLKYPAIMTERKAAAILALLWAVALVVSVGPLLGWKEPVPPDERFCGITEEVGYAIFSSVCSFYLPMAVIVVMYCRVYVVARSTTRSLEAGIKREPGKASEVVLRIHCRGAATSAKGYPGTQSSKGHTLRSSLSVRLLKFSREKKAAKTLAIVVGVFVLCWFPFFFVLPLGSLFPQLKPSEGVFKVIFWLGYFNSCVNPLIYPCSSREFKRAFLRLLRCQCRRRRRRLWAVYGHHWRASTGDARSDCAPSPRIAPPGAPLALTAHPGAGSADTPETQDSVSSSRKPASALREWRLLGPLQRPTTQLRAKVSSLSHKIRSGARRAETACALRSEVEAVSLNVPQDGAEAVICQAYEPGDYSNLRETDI
Experimental: Additionally, binding affinity against the pharmacologically defined α-1A adrenoreceptor (rat submaxillary gland) was measured.
as §1, §2, §3, §4

| SMILES | pKi [1] | pKi [2] | Ki [1] | Ki [2] |
| --- | --- | --- | --- | --- |
| COc1cccc2c1[C@@H]1CCN(CCCCn3c(=O)[nH]c4c(sc5ccccc54)c3=O)C[C@H]1CO2 (relative stereo) [Example 87, 3-[4-((±)-trans-10-Methoxy-1,3,4,4a,5,10b-hexahydro-2H-[1]-benzopyrano[3,4-c]pyrido-3-yl)butyl]-[1]-benzthieno[3,2-d]pyrimidine-2,4(1H,3H)-dione hydrochloride] | 8.54 | 9.15 |  |  |
| COc1cccc2c1[C@@H]1CCN(CCCCn3c(=O)[nH]c4c(sc5cccnc54)c3=O)C[C@H]1CO2 (relative stereo) [Example 88, 3-[4-((±)-trans-10-Methoxy-1,3,4,4a,5,10b-hexahydro-2H-[1]-benzopyrano[3,4-c]pyrido-3-yl)butyl]-pyrido[2',3':4,5]thieno[3,2-d]pyrimidine-2,4(1H,3H)-dione hydrochloride] | 9.10 | 9.59 |  |  |
| COc1cc2[nH]c(=O)n(CCN3CC[C@H]4c5c(OC)cccc5OC[C@@H]4C3)c(=O)c2cc1OC (relative stereo) [Example 91, 3-[2-((±)-trans-10-Methoxy-1,3,4,4a,5,10b-hexahydro-2H-[1]-benzopyrano[3,4-c]pyrido-3-yl)ethyl]-6,7-dimethoxy-quinazoline-2,4(1H,3H)-dione hydrochloride] |  |  | 1.46 nM | 0.495 nM |
| COc1ccc2c(n1)sc1c(=O)n(CCCCN3C[C@@H]4COc5cccc(OC)c5[C@@H]4C3)c(=O)[nH]c12 [Example 33, hydrochloride] |  |  | 10.5 nM | 0.701 nM |
